Values of other authors, collected in patent US8748695B2, “Molecular markers linked to PPO inhibitor tolerance in soybeans” (Pioneer Hi-Bred International, Inc., priority 2008, dated 2014).

Key:
soybean cultivars = conditions: in vivo

| SMILES | half-life | Growth Reduction Index (soybean cultivars) [%] |
| --- | --- | --- |
| Cc1nn(-c2cc(CC(Cl)C(=O)O)c(Cl)cc2F)c(=O)n1C(F)F (centres unmarked) [Carfentrazone] | approximately 4 days | – |
| Cc1nn(-c2cc(NS(C)(=O)=O)c(Cl)cc2Cl)c(=O)n1C(F)F [sulfentrazone] | – | 20 |
